Results from ChEMBL document CHEMBL6078698, “Discovery of 6-Fluoro-5-{4-[(5-fluoro-2-methyl-3-oxo-3,4-dihydroquinoxalin-6-yl)methyl]piperazin-1-yl}-N-methylpyridine-2-carboxamide (AZD9574): A CNS-Penetrant, PARP1-Selective Inhibitor” (J Med Chem, 2024).
In brackets after ≈: the same amount, converted by molar mass. Each block holds one molecule with its values, some of them ahead of it.

Assays:
[1] = Ratio of unbound drug concentration in brain to plasma of rat; assay type: ADME, cell-free; settings: brain and plasma (unbound), read-out: K(p,uu,brain)
[2] = Lipophilicity, log D of compound at pH 7.4; assay type: physicochemical; settings: buffer
[3] = Intrinsic clearance in human liver microsomes; assay type: ADME, Microsome; settings: read-out: CLH
[4] = molecular target: Poly [ADP-ribose] polymerase 2 (Homo sapiens, UniProt Q9UGN5); assay: Inhibition of N-terminal 6His-tagged full-length recombinant human PARP2 by fluorescence anisotropy assay
Poly [ADP-ribose] polymerase 2, sequence (Q9UGN5 whole entry): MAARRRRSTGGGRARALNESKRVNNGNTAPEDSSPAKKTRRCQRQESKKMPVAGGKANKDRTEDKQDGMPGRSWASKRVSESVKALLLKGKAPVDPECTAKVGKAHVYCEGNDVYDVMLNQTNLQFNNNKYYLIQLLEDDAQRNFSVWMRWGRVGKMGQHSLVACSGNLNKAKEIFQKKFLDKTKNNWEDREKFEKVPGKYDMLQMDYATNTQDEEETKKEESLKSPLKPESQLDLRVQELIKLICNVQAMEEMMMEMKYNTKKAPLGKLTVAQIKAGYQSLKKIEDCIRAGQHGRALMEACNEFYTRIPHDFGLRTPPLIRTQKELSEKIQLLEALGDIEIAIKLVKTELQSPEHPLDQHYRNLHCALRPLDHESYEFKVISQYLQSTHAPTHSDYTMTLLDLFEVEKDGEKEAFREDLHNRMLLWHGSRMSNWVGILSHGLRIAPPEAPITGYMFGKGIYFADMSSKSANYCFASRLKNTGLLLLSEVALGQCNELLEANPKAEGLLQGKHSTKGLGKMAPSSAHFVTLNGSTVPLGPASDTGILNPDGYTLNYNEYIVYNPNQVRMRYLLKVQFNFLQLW

[5] = Inhibition of cell proliferation of human DLD-1 cells expressing BRCA2-/- incubated for 7 days by Sytox green dye based analysis; assay type: functional; settings: DLD-1, 168 h
[6] = Solubility of compound at pH 7.4; assay type: physicochemical; settings: buffer
[7] = Toxicity in mouse xenografted with human DLD-1 cells expressing BRCA2-/- assessed as drug tolerance at 3 to 30 mg/kg administered once daily for 5 weeks; assay type: organism-based; settings: in vivo, 840 h, dose 3-30 mg/kg
[8] = Half life in Beagle dog at 1 mg/kg, po or 1 mg/kg, iv; assay type: ADME, organism-based, Canis lupus familiaris; settings: in vivo
[9] = Oral bioavailability […] in CD-1 mouse at 1 mg/kg; assay type: ADME, organism-based; settings: in vivo
[10] = Volume of distribution at steady state in CD-1 mouse at 1 mg/kg, po or 0.5 mg/kg, iv; assay type: ADME, organism-based; settings: in vivo
[11] = Volume of distribution at steady state in Cynomolgous monkey at 1 mg/kg, po or 0.5 mg/kg, iv; assay type: ADME, organism-based, Macaca fascicularis; settings: cynomolgus monkey, in vivo
[12] = Half life in Cynomolgous monkey at 1 mg/kg, po or 0.5 mg/kg, iv; assay type: ADME, organism-based, Macaca fascicularis; settings: cynomolgus monkey, in vivo
[13] = Unbound fraction in Cynomolgous monkey plasma at 1 mg/kg, po or 0.5 mg/kg, iv; assay type: ADME, organism-based, Macaca fascicularis; settings: cynomolgus monkey, in vivo
[14] = Volume of distribution at steady state in Beagle dog at 1 mg/kg, po or 1 mg/kg, iv; assay type: ADME, organism-based, Canis lupus familiaris; settings: in vivo
[15] = Unbound fraction in CD-1 mouse plasma at 1 mg/kg, po or 0.5 mg/kg, iv; assay type: ADME, organism-based; settings: in vivo
hERG (KCNH2) = hERG (KCNH2) (Homo sapiens, UniProt Q12809); assay: (§1) Inhibition of hERG transfected in CHO cells by electrophysiology; assay type: toxicity, cell-based; settings: human, CHO cells transfected with hERG
hERG (KCNH2), sequence (Q12809 whole entry): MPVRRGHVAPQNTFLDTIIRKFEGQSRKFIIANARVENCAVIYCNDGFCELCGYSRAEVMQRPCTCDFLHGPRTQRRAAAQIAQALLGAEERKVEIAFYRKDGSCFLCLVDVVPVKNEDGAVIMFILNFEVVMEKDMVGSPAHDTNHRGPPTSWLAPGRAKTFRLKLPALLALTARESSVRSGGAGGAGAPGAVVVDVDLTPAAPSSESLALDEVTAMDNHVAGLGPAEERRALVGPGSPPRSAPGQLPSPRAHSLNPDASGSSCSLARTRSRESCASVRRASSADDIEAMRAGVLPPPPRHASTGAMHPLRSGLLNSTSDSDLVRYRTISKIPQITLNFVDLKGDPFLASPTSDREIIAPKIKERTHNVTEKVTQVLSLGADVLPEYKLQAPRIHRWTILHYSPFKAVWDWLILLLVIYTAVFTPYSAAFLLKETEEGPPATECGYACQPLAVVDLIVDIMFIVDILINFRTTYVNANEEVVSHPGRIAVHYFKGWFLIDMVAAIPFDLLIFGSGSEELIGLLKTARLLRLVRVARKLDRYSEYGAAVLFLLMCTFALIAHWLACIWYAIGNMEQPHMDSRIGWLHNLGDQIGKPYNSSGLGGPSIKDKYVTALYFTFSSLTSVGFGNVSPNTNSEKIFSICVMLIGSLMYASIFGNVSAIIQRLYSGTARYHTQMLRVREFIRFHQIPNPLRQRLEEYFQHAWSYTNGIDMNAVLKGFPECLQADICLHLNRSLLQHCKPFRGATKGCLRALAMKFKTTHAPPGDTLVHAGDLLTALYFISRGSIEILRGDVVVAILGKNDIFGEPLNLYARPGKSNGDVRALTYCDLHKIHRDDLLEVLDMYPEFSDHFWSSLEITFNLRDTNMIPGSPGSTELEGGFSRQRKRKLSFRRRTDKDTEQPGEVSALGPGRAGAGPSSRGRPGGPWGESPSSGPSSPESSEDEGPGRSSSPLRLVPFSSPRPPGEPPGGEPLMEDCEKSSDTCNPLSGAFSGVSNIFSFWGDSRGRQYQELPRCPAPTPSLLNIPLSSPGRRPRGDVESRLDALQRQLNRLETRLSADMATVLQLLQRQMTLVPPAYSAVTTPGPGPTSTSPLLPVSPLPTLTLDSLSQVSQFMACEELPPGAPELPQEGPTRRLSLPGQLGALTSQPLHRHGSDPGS

DLD-1 [16] = assay: Antitumor activity against human DLD-1 cells expressing BRCA2-/- xenografted in mouse at 30 mg/kg administered once daily for 5 weeks relative to control; assay type: functional; settings: DLD-1, 840 h, read-out: TGI
[17] = Half life in Han Wistar rat at 1 mg/kg, po or 1 mg/kg, iv; assay type: ADME, organism-based; settings: in vivo
[18] = Half life in CD-1 mouse at 1 mg/kg, po or 0.5 mg/kg, iv; assay type: ADME, organism-based; settings: in vivo
[19] = Oral bioavailability in Han Wistar rat at 1 mg/kg; assay type: ADME, organism-based; settings: in vivo
[20] = Oral bioavailability in Beagle dog at 1 mg/kg; assay type: ADME, organism-based, Canis lupus familiaris; settings: in vivo
DLD-1 [21] = assay: Antitumor activity against human DLD-1 cells expressing BRCA2-/- xenografted in mouse at 10 mg/kg administered once daily for 5 weeks relative to control; assay type: functional; settings: DLD-1, 840 h, read-out: TGI
[22] = Toxicity in mouse xenografted with human DLD-1 cells expressing BRCA2-/- assessed as body weight reduction at 3 to 30 mg/kg administered once daily for 5 weeks; assay type: organism-based; settings: in vivo, 840 h, dose 3-30 mg/kg
DLD-1 [23] = assay: Antitumor activity against human DLD-1 cells expressing BRCA2-/- xenografted in mouse at 3 mg/kg administered once daily for 5 weeks relative to control; assay type: functional; settings: DLD-1, 840 h, read-out: TGI
[24] = Volume of distribution at steady state in Han Wistar rat at 1 mg/kg, po or 1 mg/kg, iv; assay type: ADME, organism-based; settings: in vivo
[25] = Unbound fraction in Han Wistar rat plasma at 1 mg/kg, po or 1 mg/kg, iv; assay type: ADME, organism-based; settings: in vivo
[26] = Oral bioavailability in Cynomolgous monkey at 1 mg/kg; assay type: ADME, organism-based, Macaca fascicularis; settings: cynomolgus monkey, in vivo
[27] = Unbound fraction in Beagle dog plasma at 1 mg/kg, po or 1 mg/kg, iv; assay type: ADME, organism-based, Canis lupus familiaris; settings: in vivo
MDR1 (P-gp), BCRP = assay: Efflux ratio in MDCK-MDR1-BCRP cells; assay type: ADME, cell-based, Canis lupus familiaris; settings: dog
[28] = molecular target: Voltage-gated inwardly rectifying potassium channel KCNH2 (Homo sapiens, UniProt Q12809); assay: as §1; assay type: toxicity, cell-based
Voltage-gated inwardly rectifying potassium channel KCNH2, sequence (Q12809 whole entry): as above

[29] = molecular target: Poly [ADP-ribose] polymerase 1 (Homo sapiens, UniProt P09874); assay: Inhibition of N-terminal 6His-tagged full-length recombinant human PARP1 by fluorescence anisotropy assay
Poly [ADP-ribose] polymerase 1, sequence (P09874 whole entry): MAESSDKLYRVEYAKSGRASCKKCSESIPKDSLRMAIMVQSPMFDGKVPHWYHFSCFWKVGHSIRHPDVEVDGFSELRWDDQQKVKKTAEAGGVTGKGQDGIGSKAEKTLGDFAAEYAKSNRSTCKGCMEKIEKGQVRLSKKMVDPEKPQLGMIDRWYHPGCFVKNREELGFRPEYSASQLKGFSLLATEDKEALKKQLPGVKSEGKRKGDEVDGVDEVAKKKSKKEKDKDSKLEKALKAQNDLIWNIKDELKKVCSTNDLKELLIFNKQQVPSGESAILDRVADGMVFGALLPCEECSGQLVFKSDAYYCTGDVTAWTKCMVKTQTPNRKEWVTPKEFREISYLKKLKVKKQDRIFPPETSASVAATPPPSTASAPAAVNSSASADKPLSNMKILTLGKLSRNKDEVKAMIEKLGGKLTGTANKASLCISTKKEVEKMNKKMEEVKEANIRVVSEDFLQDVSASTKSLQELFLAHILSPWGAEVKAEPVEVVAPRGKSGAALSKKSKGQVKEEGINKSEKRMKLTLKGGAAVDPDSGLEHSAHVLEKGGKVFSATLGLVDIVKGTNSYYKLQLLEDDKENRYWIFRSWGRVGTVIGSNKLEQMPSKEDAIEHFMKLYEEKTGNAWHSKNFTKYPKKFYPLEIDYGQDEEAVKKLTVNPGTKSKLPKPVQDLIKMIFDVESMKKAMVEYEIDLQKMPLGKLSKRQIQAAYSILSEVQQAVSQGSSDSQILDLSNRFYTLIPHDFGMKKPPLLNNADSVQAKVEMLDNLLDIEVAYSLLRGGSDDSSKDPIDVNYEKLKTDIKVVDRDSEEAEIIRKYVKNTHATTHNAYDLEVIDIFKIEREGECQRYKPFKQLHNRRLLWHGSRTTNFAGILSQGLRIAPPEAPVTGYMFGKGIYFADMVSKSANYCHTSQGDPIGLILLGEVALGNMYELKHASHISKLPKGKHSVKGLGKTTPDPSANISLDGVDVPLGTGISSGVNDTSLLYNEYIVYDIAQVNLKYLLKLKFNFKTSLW

DLD-1 [30] = assay: Antitumor activity against human DLD-1 cells expressing BRCA2-/- xenografted in athymic nude Foxn1nu mouse at 100 mg/kg administered once daily for 28 days relative to control; assay type: functional; settings: DLD-1, 672 h, time 28 day, read-out: TGI

SMILES: CNC(=O)c1ccc(N2CCN(Cc3ccc4nc(C)c(=O)[nH]c4c3F)CC2)c(F)n1 [AZD-9574]
Activity [7]: Non-toxic
half-life [8]: 720 min
bioavailability [9]: 116%
Vdss [10]: 2.7 L/kg
Vdss [11]: 1.7 L/kg
half-life [12]: 630 min
Fu [13]: 16%
Vdss [14]: 1.1 L/kg
logD [2]: 1.9
Fu [15]: 20%
IC50 (hERG (KCNH2)): > 40 µM
inhibition in vivo at 30 mg/kg (DLD-1 [16]): 69%
microsomal CLint [3]: < 3 µL/min/mg
half-life [17]: 378 min
half-life [18]: 240 min
bioavailability [19]: 50%
bioavailability [20]: 91%
inhibition in vivo at 10 mg/kg (DLD-1 [21]): 73%
Activity [22]: Toxic
inhibition in vivo at 3 mg/kg (DLD-1 [23]): 43%
Vdss [24]: 2.3 L/kg
Kp uu [1]: 0.31
Fu [25]: 13%
IC50 [5]: 16 nM
bioavailability [26]: 95%
solubility [6]: 19 µM (≈ 8.14 µg/mL)
Fu [27]: 25%

SMILES: CCc1nc2ccc(CN3CCN(c4ccc(C(=O)NC)nc4F)CC3)cc2[nH]c1=O
logD [2]: 2.7
microsomal CLint [3]: 8 µL/min/mg
efflux ratio (MDR1 (P-gp), BCRP): 2
Kp uu [1]: 0.1
IC50 [5]: 1 nM
solubility [6]: 4 µM (≈ 1.7 µg/mL)

SMILES: O=C(c1cc(Cc2n[nH]c(=O)c3ccccc23)ccc1F)N1CCN(C(=O)C2CC2)CC1 [OLAPARIB]
Kp uu [1]: < 0.1
inhibition in vivo at 100 mg/kg (DLD-1 [30]): 40%

SMILES: Cn1ncnc1[C@H]1c2n[nH]c(=O)c3cc(F)cc(c23)N[C@@H]1c1ccc(F)cc1 [TALAZOPARIB]
Kp uu [1]: < 0.1

SMILES: CCc1cc2ccc(CN3CCN(c4ccc(C(=O)NC)nc4C)CC3)cc2[nH]c1=O
logD [2]: 3.3
IC50 [28]: 17 µM
IC50 [29]: 5 nM
microsomal CLint [3]: 19 µL/min/mg
IC50 [4]: 1500 nM
IC50 [5]: 2 nM
solubility [6]: 3 µM (≈ 1.26 µg/mL)

More lines, main results first:

Kp uu [1]: 0.05
SMILES: CCc1nc2ccc(CN3CCN(c4ccc(C(=O)NC)nc4)CC3)cc2[nH]c1=O

logD [2]: 3.1
microsomal CLint [3]: < 3 µL/min/mg
IC50 [4]: > 100000 nM
solubility [6]: < 2 µM
SMILES: CCc1nc2ccc(CN3CCN(c4ccc(C(=O)NC)nc4F)CC3)c(C)c2[nH]c1=O
IC50 [5]: 12 nM

Kp uu [1]: < 0.1
SMILES: CNCc1ccc(-c2[nH]c3cc(F)cc4c3c2CCNC4=O)cc1 [RUCAPARIB]
IC50 [5]: 39 nM

Kp uu [1]: 0.19
SMILES: C[C@]1(c2nc3c(C(N)=O)cccc3[nH]2)CCCN1 [VELIPARIB]
IC50 [5]: 1300 nM

logD [2]: 2.2
microsomal CLint [3]: < 3 µL/min/mg
efflux ratio (MDR1 (P-gp), BCRP): 1.6
Kp uu [1]: 0.19
solubility [6]: 11 µM (≈ 4.67 µg/mL)
SMILES: CNC(=O)c1ccc(N2CCN(Cc3ccc4nc(C)c(=O)[nH]c4c3F)CC2)c(C)n1
IC50 (hERG (KCNH2)): > 40 µM
IC50 [5]: 7 nM

logD [2]: 2
IC50 [29]: 4 nM
microsomal CLint [3]: 17 µL/min/mg
efflux ratio (MDR1 (P-gp), BCRP): 6.8
IC50 [4]: 690 nM
solubility [6]: 1 µM (≈ 0.434 µg/mL)
SMILES: CNC(=O)c1ccc(N2CCN(Cc3ccc4c5c(c(=O)[nH]c4c3)COCC5)CC2)cn1
IC50 [28]: > 40 µM

logD [2]: 3.3
IC50 [29]: 6 nM
microsomal CLint [3]: 33 µL/min/mg
IC50 [4]: 6300 nM
solubility [6]: 3 µM (≈ 1.26 µg/mL)
SMILES: CCc1cc2ccc(CN3CCN(c4cnc(C(=O)NC)cc4C)CC3)cc2[nH]c1=O
IC50 [28]: 8 µM
IC50 [5]: 1140 nM
